Experimental data from paper PMC12196213, “New Insights into the Anticancer Effects and Toxicogenomic Safety of Two β-Lapachone Derivatives” (Pharmaceuticals, 2025).

Tests used:
HeLa cells = test: Annexin V-FITC / propidium iodide flow cytometry (apoptosis or necrosis); type: cell-based, human; conditions: 48 h; for necrosis compared to negative control: BV3 at the IC50 concentration; for cell viability compared to negative control: IC50 or 2 × IC50
Protocol: The analysis was performed using flow cytometry with the Annexin V Apoptosis Detection Kit (eBioscience™, USA) following the manufacturer’s instructions. Initially, HeLa cells were incubated at a concentration of 4 × 10^5 cells/mL and treated with the compounds at their IC50 or 2 × IC50 values obtained at 48 h. β-lap was used as a positive control, and the culture medium as the negative control. After 48 h of treatment, the cells were trypsinized and centrifuged at 1200× g for 5 min. Subsequently, the cells were washed with PBS and centrifuged again. The cells were then resuspended in buffer and incubated with 5 µL of Annexin V-FITC for 10 min. Afterward, the cells were washed with the buffer, centrifuged, resuspended in the buffer, and stained with 10 µL of propidium iodide. The cells were acquired using the Guava EasyCyteHT cytometer (Merck-Millipore, Burlington, MA, USA) with Guava—Soft™ software version 2.7. A total of 5000 events were counted per treatment.

[1] = test system: HepG2 (human hepatocellular carcinoma); test: MTT cytotoxicity assay, HepG2; type: cell-based; conditions: for IC50: Homo sapiens, HepG2, 72 h, MTT; for selectivity index (SI): IC50 L929 / IC50 HepG2, 72 h
Protocol: (§1) To assess the cytotoxicity of the compounds, the MTT [3-(4,5-dimethylthiazol-2-yl)-2,5-diphenyltetrazolium bromide] assay was employed. The cells (2 × 10^5/mL) were incubated with the substances at concentrations ranging from 0.78 to 25 µg/mL. β-lap was used as a positive control. After 24, 48, or 72 h of incubation, MTT was added at a concentration of 5 mg/mL. Cell viability in different treatments was compared to the negative control using the following formula: Cell viability%=mean absorbance of treated samples/mean absorbance of negative control×100 The IC50 (the concentration that inhibits 50% of cell growth compared to the negative control) was calculated using nonlinear regression in GraphPad Prism 8.0 for Windows (GraphPad Demo Software, San Diego, CA, USA). Experiments were performed in triplicate and in two independent experiments. The protocol is also described in other previous publications. The IC50 of normal and cancer cells was used to calculate the SI of compounds BV3 and BV5. The SI indicated the selectivity of the compounds among the normal cell line (L-929) and a cancer cell line (HCT-116, MDA-MB-231, HepG2, or HeLa). SI is a crucial parameter for therapeutic applications in upcoming clinical trials. Therefore, the following formula was used to calculate SI: SI=IC50(normal cell line)/IC50(cancer cell line)

HASPIN = target: T1, HASPIN (Homo sapiens, UniProt Q8TF76); test: ADP-Glo kinase assay; type: biochemical; conditions: 10 µM ATP, read-out: % of residual activity; for remaining activity at 1 µM: 1 µM compound; for remaining activity at 10 µM: 10 µM compound
T1 sequence (Q8TF76 470-798 limits assumed): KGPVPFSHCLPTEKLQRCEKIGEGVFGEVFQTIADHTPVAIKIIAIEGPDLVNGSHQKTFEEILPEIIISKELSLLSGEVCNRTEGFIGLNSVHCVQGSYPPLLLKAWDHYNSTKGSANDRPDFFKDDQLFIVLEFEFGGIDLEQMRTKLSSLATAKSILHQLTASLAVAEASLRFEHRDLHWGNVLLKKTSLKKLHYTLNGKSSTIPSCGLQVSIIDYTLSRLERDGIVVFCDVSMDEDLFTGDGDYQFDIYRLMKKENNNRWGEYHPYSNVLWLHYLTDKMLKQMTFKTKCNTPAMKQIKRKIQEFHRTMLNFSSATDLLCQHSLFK
Protocol: Kinase enzymatic activities of CDK5/p25, CDK9/CyclinT, HASPIN, PIM1, GSK3β, CK1ε, ABL1, and JAK3 were assayed using the luminescent ADP detection assay described in Zegzouti et al. (ADP-GloTM assay kit provided by Promega, Madison, WI, USA). Briefly, the reactions were carried out in appropriate kinase buffer, with either protein or peptide as substrate in the presence of 10 µM ATP. Assay conditions used for each kinase tested here are described in Ibrahim et al.. The Envision (PerkinElmer, Waltham, MA, USA) microplate luminometer was used to measure the transmitted signal expressed in Relative Light Unit (RLU). In order to determine the half maximal inhibitory concentration (IC50), the assays were performed in duplicate in the absence or presence of increasing doses of the tested compounds. Kinase activities are expressed in % of maximal activity, i.e., measured in the absence of inhibitor but with a similar dose of DMSO (solvent of the tested compounds).

[2] = test system: cancer cells (HeLa, HCT-116, HepG2, MDA-MB-231); test: MTT cytotoxicity assay, cancer cell panel (range over lines); type: cell-based; conditions: Homo sapiens, 72 h
Protocol: as §1, with “publications.” for “publications. The IC50 of normal and cancer cells was used to calculate the SI of compounds BV3 and BV5. The SI indicated the selectivity of the compounds among the normal cell line (L-929) and a cancer cell line (HCT-116, MDA-MB-231, HepG2, or HeLa). SI is a crucial parameter for therapeutic applications in upcoming clinical trials. Therefore, the following formula was used to calculate SI: SI=IC50(normal cell line)/IC50(cancer cell line)”

[3] = test system: MDA-MB-231 (human breast adenocarcinoma); test: MTT cytotoxicity assay, MDA-MB-231; type: cell-based; conditions: for IC50: Homo sapiens, MDA-MB-231, MDA-MD-231 (so in the source), 72 h, MTT; for selectivity index (SI): IC50 L929 / IC50 MDA-MD-231, 72 h
Protocol: as §1

**Q.** Which results are given for `CC1(C)CCC2=C(O1)c1ccccc1/C(=N/NC(=S)Nc1ccc([N+](=O)[O-])cc1)C2=O` [BV3, 2-(2,2-dimethyl-5-oxo-3,4-dihydro-2H-benzo[h]chromen-6(5H)-ylidene)-N-(4nitrophen-yl)thio-carbohydrazide]?
**A.** necrosis compared to negative control (HeLa cells): increases; cell viability compared to negative control (HeLa cells): significantly decreased cell viability; IC50 [1]: 12.6 µM; selectivity index (SI) [1]: 3.47; remaining activity at 1 µM (HASPIN): ≥ 100%; remaining activity at 10 µM (HASPIN): ≥ 100%; IC50 [2]: 2.81 to 20.6 µM; IC50 [3]: 16.5 µM; selectivity index (SI) [3]: 2.66

**Q.** Which “cell viability compared to negative control” value (HeLa cells) does the source give for `Cc1ccc(NC(=S)N/N=C2\C(=O)C3=C(OC(C)(C)CC3)c3ccccc32)cc1` [BV5, 2-(2,2-dimethyl-5-oxo-3,4-dihydro-2H-benzo[h]chromen-6(5H)-ylidene)-N-(p-tolyl)-thiocarbohydrazide] here?
**A.** Its value is “significantly decreased cell viability”.

**Q.** And the IC50 [1]?
**A.** Its IC50 is 17.9 µM.

**Q.** What about the remaining activity at 1 µM (HASPIN) of the same compound?
**A.** The remaining activity at 1 µM was no less than 100%.

**Q.** And the remaining activity at 10 µM (HASPIN)?
**A.** The remaining activity at 10 µM was no less than 100%.

**Q.** And the IC50 [2]?
**A.** Its IC50 is 15.5 to 36.9 µM.

**Q.** And the IC50 [3]?
**A.** The IC50 was 15.5 µM.

**Q.** `CC1(C)CCC2=C(O1)c1ccccc1C(=O)C2=O` [β-lap, β-Lapachone] was tested. Which “early apoptosis compared to negative control” value (HeLa cells) did it give?
**A.** The value was “significantly increased”.

**Q.** What about the “necrosis compared to negative control” value (HeLa cells) of the same compound?
**A.** Its value is “increases”.

**Q.** And the “cell viability compared to negative control” value (HeLa cells)?
**A.** The value was “reduced the number of viable cells”.

**Q.** And the IC50 [1]?
**A.** The IC50 was 0.12 µM.

**Q.** What about the “selectivity index (SI)” value [1] of the same compound?
**A.** Its value is 37.8.

**Q.** And the remaining activity at 1 µM (HASPIN)?
**A.** The remaining activity at 1 µM was no less than 100%.

**Q.** What about the remaining activity at 10 µM (HASPIN) of the same compound?
**A.** The remaining activity at 10 µM was 91%.

**Q.** And the IC50 [2]?
**A.** Its IC50 is 0.12 to 3.38 µM.

**Q.** And the IC50 [3]?
**A.** The IC50 was 3.38 µM.

**Q.** What about the “selectivity index (SI)” value [3] of the same compound?
**A.** The value was 1.34.
